Measurements from US10463685B2, “Telomerase mediated telomere altering compounds” (The Board of Regents of The University of Texas System, priority 2013, dated 2019).
Where two headings read alike, the source gives them in different places. [tNP] = thio-phosphoramidate internucleoside linkage; {Palm} = palmitoyl group

What was measured:
BJ fibroblast cells = test: Telomere length assay (TRF), long-term culture; format: cell-based, human; conditions: BJ fibroblasts, 10 weeks
Procedure: (§1) For long-term cellular experiments, HCT116 (1,000 cells/cm^2) and BJ (10,000 cells/cm^2) cells were fed with 6-thio-dG (1, 3, 10 μM) containing medium every three days. The cells were counted and replated every week for 10-16 weeks. Additionally, HCT116 cells (1,000 cells/cm^2) were fed with 6-thio-G (1, 3, 10 μM) every three days and each week cells were counted, collected for TRF (Telomere Restriction Fragment) analysis and replated. HCT116 cells, following treatment with 10 μM 6-thio-dG for 12 weeks, were then treated with a combination of 10 μM 6-thio-dG and […] GRN163L for 2-4 weeks.
1×10^6 cells were collected and washed with PBS. DNA was isolated using the manufacturer's instructions (Qiagen, Valencia, Calif.). 2.5 μg DNA was digested with six different restriction enzymes (HhaI, HinfI, MspI, HaeIII, RsaI, AluI) (New England Bio, Ipswich, Mass.) and incubated at 37° C. overnight. […] Gels were exposed to a PhosphorImager screen overnight and analyzed using a Typhoon PhosphorImager scanner system (Molecular Dynamics).
To determine if 6-thio-dG and 6-thio-G causes progressive telomere shortening, telomere lengths of treated cells were evaluated by TRF assay. […]

[1] = test system: A549 human lung cancer cells; test: Tumor growth in xenograft animal model; format: in vivo, mice; conditions: 2.5 mg/kg every day
Procedure: Doses of 2.5 mg/kg of 6-thio-dG and 2.5 mg/kg of 6-thio-G were injected every day into mice after tumor implantation and providing time for tumor initiation. DMSO injections were used for the control. The volume of the tumor was measured.

[2] = format: in vivo
Procedure: Six WT mice were treated with 1.67 mg of 6-thio-dG/kg of body weight daily. Six WT mice were treated with 1.67 mg of 6-thio-G/kg of body weight daily. Six WT mice were treated with 5 mg of 6-thio-dG/kg of body weight daily. Six WT mice were treated with 5 mg of 6-thio-G/kg of body weight daily. The mice were given the appropriate dosage and weighed daily for 25 days. […] In comparison, the mice receiving 6-thio-G at the same dose lost between 1-2 grams (6-12% of initial weight) over the course of the 25 day treatment. […] In comparison, the mice receiving 6-thio-G at the same dose loss around 2 grams and all mice died by the 15th day of treatment.

HCT116 cells [3] = test: Cell count and morphology after one week of treatment; format: cell-based, human; conditions: 3 μM, twice during one week
From the text: HCT116 represents a human colon cancer cells, A549 models human lung epithelial cancer cells, H2882 models human lung epithelial cancer cells, HCC2429 models human lung epithelial cancer cells, HCC827 models human lung epithelial cancer cells, HCC15 models human lung epithelial cancer cells, H2087 models human lung epithelial cancer cells, HCC4017 models human lung epithelial cancer cells, HCC515 models human lung epithelial cancer cells, H2009 models human lung epithelial cancer cells, BJ-hTERT cells model telomerase expressing normal human fibroblast cells, and BJ human fibroblasts (telomerase silent) were grown in a Media X (Hyclone, Logan, Utah) supplemented with 10% cosmic calf serum (Hyclone).
Cancer HCT116 and normal BJ fibroblast cells were treated with 6-thio-dG (3 μM) and 6-thio-G (3 μM) twice during one week. Following one week of the treatment, cell morphology was monitored, and then the cells were collected and counted.

HCT116 cells [4] = test: Telomere length assay (TRF), long-term culture; format: cell-based, human
Procedure: as §1
1×10^6 cells were collected and washed with PBS. DNA was isolated using the manufacturer's instructions (Qiagen, Valencia, Calif.). 2.5 μg DNA was digested with six different restriction enzymes (HhaI, HinfI, MspI, HaeIII, RsaI, AluI) (New England Bio, Ipswich, Mass.) and incubated at 37° C. overnight. Digested DNA was separated on a 0.7% agarose gel overnight at 70 V. The terminal restriction fragment (TRF) gel was denatured for 20 min in denaturating solution (0.5 M NaOH, 1.5 M NaCl, pH 13.2) and dried on Whatman 3 MM paper under vacuum for 3 hours at 56° C. The gel was neutralized for 15 minutes in neutralization buffer (1.5 M NaCl, 0.5 M Tris-HCl, pH 8.0) and then probed with a radiolabeled telomeric probe (C-rich) for 16 hours at 42° C. in 5×SSC buffer, 5×Denhardt's solution, 10 mmol/L Na2HPO4, and 1 mmol/L Na2H2P2O7. The gel was washed once with 2×SSC, 0.1% SDS, twice with 0.5×SSC, 0.1% SDS and then twice with 0.5×SSC, 1% SDS at room temperature for 15 min. Gels were exposed to a PhosphorImager screen overnight and analyzed using a Typhoon PhosphorImager scanner system (Molecular Dynamics).
To determine if 6-thio-dG and 6-thio-G causes progressive telomere shortening, telomere lengths of treated cells were evaluated by TRF assay. Cancer HCT116 and normal BJ fibroblast cells were treated with 1 μM or 10 μM of 6-thio-dG for 1-12 weeks every 3 days. In addition, HCT116 cells were also treated with 1 μM or 10 μM 6-thio-G for 1-10 weeks every 3 days to determine if there is any effect of this molecule on telomeric length maintenance. The control was untreated. Each week samples were collected for TRF analysis at 1×10^6 cells/sample at 1, 5, and 12 weeks for cells treated with 6-thio-dG and 1, 5, and 10 for cells treated with 6-thio-G.
HCT116 cells were treated with either 10 μM 6-thio-dG alone for 12-16 weeks, or with 3 μM GRN163L alone for 11 weeks. Then, these long term 6-thio-dG treated surviving cells were cultured with a combination of 6-thio-dG (10 μM) and/or GRN163L (3 μM) for 2-4 additional weeks. […] Specifically, the HCT116 cells were treated beyond the 12 weeks of 6-thio-dG treatment with either GRN163L only or GRN163L+6-thio-dG, for an additional 2 and 4 weeks to determine if there is an effect on telomere length.

HCT116 cells [5] = test: TIF assay, gamma-H2AX and TRF2 immuno-staining; format: cell-based, human; conditions: HCT116, 3 μM
Procedure: Briefly, HCT116 cells were plated in 4-well chamber slides and after the cells attached to the surface, either 3 μM 6-thio-dG or 3 μM 6-thio-G was added to the medium at different time points (0, 30 min, 12 h, 24 h, 48 h, 72 h). […] TIFs were quantified using Imaris software.
Cancer HCT116 cells were seeded in chamber slides. Following cell attachment, 6-thio-dG (3 μM) and 6-thio-G (3 μM) were added to fresh medium at various time points (0, 30 min, 2 h, 12 h, 24 h, 48 h, 72 h). To test if 6-thio-dG and 6-thio-G cause telomere dysfunction in cancer cells, TIF analysis was conducted. […] 6-thio-dG treatment causes a 2.8-fold increase in telomeric DNA damage as compared to 6-thio-G after 72 h (FIG. 4).

Toxicity testing in rats = format: in vivo; conditions: for mortality: rats
Procedure: Six rats were treated with 15 mg of 6-thio-dG/kg of body weight every two days. […] Another 5 rats were treated with 50 mg of 6-thio-dG/kg of body weight every other day. All rats died after 12 days.

| Molecule | telomere shortening (TRF) compared to untreated control (BJ fibroblast cells) | histology of the residual tumors [1] | mortality ([2]; WT mice, 5 mg/kg daily, by the 15th day of treatment) | weight lost ([2]; mouse, in vivo, 5 mg/kg) | cell count / cell death (HCT116 cells [3]) | telomere length on continued treatment (HCT116 cells [4]; HCT116, 10 μM, 12 weeks versus 16 weeks) | telomere shortening (TRF) (HCT116 cells [4]; HCT116, 1 or 10 μM every 3 days, one week and five weeks) | telomere length after return to medium without drug (HCT116 cells [4]; HCT116, 12 weeks 6-thio-dG, then no drug for 2-4 weeks) | genomic DNA damage compared to 6-thio-G (HCT116 cells [5]) | rate of tumor growth (tumor volume) compared to the control and 6-thio-G [1] | signs of impaired function in remaining animals (Toxicity testing in rats; rat, in vivo, 15 mg/kg) | mortality (Toxicity testing in rats; 15 mg/kg every two days, after 6 injections, six rats) | mortality (Toxicity testing in rats; 50 mg/kg every other day, after 12 days, 5 rats) | telomere shortening (TRF) compared to the control (HCT116 cells [4]; HCT116, 3 μM alone, after 11 weeks) | telomere shortening compared with cells cultured with 6-thio-dG for 12, 14 and 16 weeks (HCT116 cells [4]; HCT116, after 12 weeks of 10 μM 6-thio-dG, additional 2 and 4 weeks of treatment) |
| --- | --- | --- | --- | --- | --- | --- | --- | --- | --- | --- | --- | --- | --- | --- | --- |
| Nc1nc2nc[nH]c2c(=S)[nH]1 [6-thio-G, 6-thioguanine, reference compound] | did not show enhanced telomere shortening | mostly “healthy” growing cancerous cells | all mice died | around 2 grams |  |  |  |  |  |  |  |  |  |  |  |
| Nc1nc2c(ncn2[C@H]2C[C@H](O)[C@@H](CO)O2)c(=S)[nH]1 [6-thio-dG, 6-thio-deoxyguanosine] | did not show enhanced telomere shortening | mostly fibrotic and often associated with apoptotic and inflammatory cells |  |  | death of the vast majority of HCT116 cells | stabilized telomeres | telomere shortening was detectable | remained about the same | overall increase in genomic DNA damage | rate of tumor growth was less | no signs of impaired function | One rat died | All rats died |  |  |
| GRN163L: 13-mer thio-phophoramidate oligonucleotide 5′-TAGGGTTAGACAA-3′ with polmitoyl group at the 5′-end; direct competitive inhibitor of telomerase (all [tNP], 5' {Palm}, sugars by position and methylation of C not given here) [reference compound] |  |  |  |  |  |  |  |  |  |  |  |  |  | did not show any significant telomere shortening | increased telomere shortening |
